Series [1] has as its system Sciatic Ligation neuropathic pain. Briefly: T23 partial ligation of the sciatic nerve (mechanical allodynia). The class given is in vivo, rats. The note with it: dose 35.5 (HZ-166), 18 (JY-XHE-053), 1 (XLI-JY-DMH) mg/kg; TPE 2 hr. On the procedure: Neuropathic pain. The pro- or antinociceptive effects of the compounds of the present invention are analyzed in two manners. […] Sterile technique will be used throughout the surgery. The upper thigh will be shaved and wiped off with ethanol and betadine. A small incision will then be made in the skin. The underlying muscle of the upper thigh will be separated and the sciatic nerve exposed. The nerve is separated from the surrounding connective tissue and slightly elevated by a pair of fine, curved forceps. Approximately ⅓ to ½ of the nerve is tied off by passing a needle (7.0) and nylon suture through the nerve. The muscle and skin incision are closed off separately with 5.0 suture and the animals kept warm until they have recovered from the anesthesia. This procedure is routinely done on the right side (ipsilateral) while a sham surgery is performed on the left hind leg (contralateral). The latter involves a similar procedure with the exception that the sciatic nerve on this side is only exposed. The rats will be closely monitored daily for the development of infection or untoward effects of the surgery in which case the animals will be immediately euthanized
After an appropriate time for recovery (7 days) the animals will be tested for the development of mechanical allodynia (abnormal response to a non-noxious stimulus). The animals are each put in a bottomless plexiglass box placed on a wire mesh (¼″) platform. After 30-60 minutes in which to acclimate, a baseline mechanical sensitivity is determined. This procedure is done by applying a series of calibrated Von Frey fibres perpendicularly to the plantar surface of each hind paw and holding it there for about 6 secs with enough force to slightly bend the fibre. After a positive response (withdrawal of the foot) is noted a weaker fibre is applied. This is repeated until a 50% threshold for withdrawal can be determined
The allodynic threshold is then redetermined after intraperitoneal administration of an investigational AED. Testing will be conducted at the time-to-peak effect of the AED as determined in the acute seizure model.

Series [2] concerns thermal hyperalgesia after CCI of the sciatic nerve. Briefly: chronic constriction injury (CCI) model, heat hyperalgesia (plantar test). The class given is in vivo, mice. The settings on record: 16 mg/kg i.p. On the procedure:
In addition, the pro- or antinociceptive effects of the compounds of the present invention are analyzed in the chronic constriction injury (CCI) model. The GABAA receptor subunit selective test compounds of the present invention are analysed in the CCI model in 7-8-week-old C57BL/6 mice. See Bennett, G. J. & Xie, Y. K. A peripheral mononeuropathy in rat that produces disorders of pain sensation like those seen in man. […] Seven to eight week old mice are anesthetized with isofluran. Unilateral constriction injury of the left sciatic nerve just proximal to the trifurcation is performed with three loose ligatures. […] Heat hyperalgesia, cold allodynia and mechanical sensitization are assessed 7-9 days after surgery. Mechanical sensitivity is assessed with electronic von Frey filaments (IITC).
Heat hyperalgesia is assessed by measuring paw withdrawal latencies on exposure to a defined radiant heat stimulus are measured with a commercially available apparatus (Plantar Test; Ugo Basile). […]
Pain studies—Neuropathic pain: HZ166 and gabapentin were analyzed in the chronic constriction injury (CCI) model. […] Heat hyperalgesia and mechanical sensitization were assessed 7-16 days after surgery.
Pain Studies—Heat hyperalgesia: Paw withdrawal latencies upon exposure to a defined radiant heat stimulus were measured using a commercially available apparatus (Plantar Test, Ugo Basile, Comerio, Italy). […]

For series [3] the following is noted: mice and rats after intraperitoneal (i.p.) application; Rivas et al., 2009; cited from earlier work.
Another series has as its system rhesus monkeys. Briefly: conflict model of anxiolytic activity which also measures sedation. The class given is in vivo. On the procedure: The data in FIGS. 21A-21F reflect the ability of the compounds or drugs to exert an anxioyic effect in rhesus monkeys (J. Rowlett, J. M. Cook et al., unpublished results) when given intravenously in propylene glycol/water solution. This is the conflict model of anxiolytic activity which also measures sedation. […] In FIG. 21B, SH-053-2′F (JY-XHE-053) is anxiolytic at a dose of greater than 0.13 mg/kg, but exerts only some slight sedation at doses greater than 1.2 mg/kg (responses decrease). In FIG. 21C it is clear the S-enantiomer of SH-053-2′F—S—CH3 is anxiolytic with no sedation up to 10-18 mg/kg, which is the highest dose tested.

Series [4] concerns locomotor activity of mice. Briefly: spontaneous locomotor activity (activity cage). Format: in vivo. On the procedure:
Locomotor activity: Spontaneous locomotor activity was tested using a commercially available microprocessor equipped activity cage (actiframe, Gerb Elektronik). Mice were placed in the activity cage 15 min before testing. Locomotor activity was measured for 1 h after intraperitoneal administration of vehicle, gabapentin or HZ166 during the early light phase of the day-night cycle.

Another series deals with Cyp. Briefly: Cyp profile.

Structures are written as SMILES. A value given as a limit tells only on which side of the number the result lay.

The values below come from patent USRE47475E1, “Selective agents for pain suppression” (WiSys Technology Foundation, Inc., priority 2002, dated 2019).

In the case of `C#Cc1ccc2c(c1)C(c1ccccn1)=NCc1c(C(=O)OCC)ncn1-2` [HZ-166, 8-Acetylenyl-6-pyridin-2-yl-4H-benzo[f]imidazo[1,5-a][1,4]diazepine-3-carboxylic acid ethyl ester], in series [1], the “Change (% of Control) ± SEM, T23 Sciatic Ligation” value is recorded as 210 % of Control and the “Significance, T23 Sciatic Ligation” value is “yes”. The “time of peak effect on PWLs after administration” value in series [2] was found to be 1 h. Moreover, the “AUC of PWL, injured paw” value in series [2] (7 days after surgery, n=6) was determined as 4.33±1.95 s*h. Moreover, in series [3], the pharmacokinetics result is listed as “suitable”. In addition, in the series on rhesus monkeys (conflict model), the “no sedation up to dose” value is “up to 10 mg/kg”. Moreover, the “sedative activity (conflict model)” value in the series with rhesus monkeys (intravenously) is given as “no sedative activity”. In addition, in the series on rhesus monkeys (intravenously in propylene glycol/water), the “anxiolytic effect (conflict model)” value is reported as “anxiolytic”. In series [4] (16 and 48 mg/kg i.p.), the “impairment of spontaneous motor activity” value is listed as “did not significantly impair”. Besides, the “doses that did not impair spontaneous locomotor activity” value in series [4] (i.p.) is recorded as at most 48 mg/kg. In addition, the sedation result in series [4] (mouse model of neuropathic pain study) is reported as “not sedating”. The Cyp profile entry with Cyp was “good”.
